We go through two molecules from PMC9079931 (RSC Advances, 2018).

The subject of series [1] is human colon cancer cell line Caco-2. The series can be described thus: In vitro cytotoxicity, MTT assay. Type of series: cell-based. The settings on record: Caco-2, 24 h, 0.001–100 μg ml^−1.
The conditions of series [2]: cited from earlier work.
The conditions of series [3]: cited from earlier work. This is another data set of the same source.
The conditions of series [4]: cited from earlier work. The source holds these as a separate data set.

As to `N#CC(c1ccc(Cl)cc1)c1c(Cl)cc(-n2ncc(=O)[nH]c2=O)cc1Cl` (stereo not shown) [DIC, Diclazuril], the “Cell viability of Caco-2 cells versus concentration” value in series [1] is given as “gradually decreased with the increase of free drug concentration”. The “Solubility of DIC in water” value in series [2] was 0.69 µg/mL. Also, the Acute toxicity result in series [3] was “low acute toxicity”.

For `OB(O)c1ccccc1` [phenylboronic acid], the “Oral acute toxicity dose” value in series [4] is “higher than 900 mg kg^−1 body weight”.
